Reference: the NIST ThermoML archive (doi:10.1016/j.jct.2017.06.020)

What was measured:
[1] = refractive index (Na D-line) (dimensionless); xn = mol fraction of the nth substance listed; settings: 298.15 K, 101.3 kPa, Liquid, Standard Abbe refractometry
[2] = relative permittivity at various frequencies (dimensionless); xn = mol fraction of the nth substance listed; settings: 298.15 K, 101.3 kPa, Liquid, Frequency=0.01 MHz, Coaxial cylinder capacitor
[3] = refractive index (Na D-line) (dimensionless); settings: 298.15 K; 101.3 kPa; Liquid; Standard Abbe refractometry
[4] = relative permittivity at various frequencies (dimensionless); settings: 298.15 K; 101.3 kPa; Liquid; Frequency=0.01 MHz; Coaxial cylinder capacitor
[5] = 298.15 K; 101.3 kPa; Liquid; Vibrating tube method

CC(=O)c1ccccc1 [acetophenone] + CCCCCO
Settings	refractive index, [1]	relative permittivity, [2]
x1 = 0.1	1.4212	14.86
x1 = 0.2	1.4346	14.71
x1 = 0.3	1.4468	14.66
x1 = 0.4	1.4598	14.75
x1 = 0.501	1.4726	14.94
x1 = 0.6	1.4859	15.25
x1 = 0.7	1.4968	15.65
x1 = 0.8	1.5092	16.19
x1 = 0.9	1.5213	16.83
x1 = 1	1.5318	17.51

CCC(C)=O [butanone]
Settings	mass density [kg/m3]	refractive index	relative permittivity
[3]	–	1.376	–
[4]	–	–	18.38
[5]	799.75	–	–

CCC(C)=O [butanone] + CC(C)CCO
x1 = 1
Settings	refractive index	relative permittivity
[1]	1.376	–
[2]	–	18.38

CCC(C)=O [butanone] + CCCCCO
Settings	refractive index, [1]	relative permittivity, [2]
x1 = 0.1	1.4053	14.81
x1 = 0.2	1.4023	14.68
x1 = 0.3	1.3988	14.63
x1 = 0.4	1.3959	14.73
x1 = 0.5	1.393	14.96
x1 = 0.599	1.3898	15.35
x1 = 0.7	1.3859	15.9
x1 = 0.8	1.3826	16.56
x1 = 0.9	1.3796	17.44
x1 = 1	1.376	18.38

C1CCCCC1 [cyclohexane]
Settings	mass density [kg/m3]	refractive index	relative permittivity
[3]	–	1.4234	–
[4]	–	–	2.02
[5]	773.58	–	–

C[S+](C)[O-] [dimethyl sulfoxide]
Settings	mass density [kg/m3]	refractive index	relative permittivity
[3]	–	1.4767	–
[4]	–	–	46.71
[5]	1096.07	–	–

C[S+](C)[O-] [dimethyl sulfoxide] + CC(C)CCO
x1 = 1
Settings	refractive index	relative permittivity
[1]	1.4768	–
[2]	–	46.71

C[S+](C)[O-] [dimethyl sulfoxide] + CCCCCO
x1 = 1
Settings	refractive index	relative permittivity
[1]	1.4767	–
[2]	–	46.71

CCCCCO [pentan-1-ol]
Settings	mass density [kg/m3]	refractive index	relative permittivity
[3]	–	1.4082	–
[4]	–	–	15.12
[5]	811.1	–	–

CCCCCO [pentan-1-ol] + CC(=O)c1ccccc1
x2 = 0
Settings	refractive index	relative permittivity
[1]	1.4082	–
[2]	–	15.12

CCCCCO [pentan-1-ol] + CC(C)=O
Settings	refractive index, [1]	relative permittivity, [2]
x2 = 0	1.4082	15.12
x2 = 0.1	1.4049	14.94
x2 = 0.2	1.4015	14.91
x2 = 0.301	1.397	15.01
x2 = 0.399	1.3926	15.28
x2 = 0.5	1.3882	15.73
x2 = 0.601	1.3828	16.35
x2 = 0.701	1.3771	17.21
x2 = 0.8	1.3706	18.21
x2 = 0.9	1.3639	19.36

CCCCCO [pentan-1-ol] + CCC(C)=O
x2 = 0
Settings	refractive index	relative permittivity
[1]	1.4082	–
[2]	–	15.12

CCCCCO [pentan-1-ol] + C[S+](C)[O-]
Settings	refractive index, [1]	relative permittivity, [2]
x2 = 0	1.4082	15.12
x2 = 0.099	1.4109	16.27
x2 = 0.201	1.4164	18.04
x2 = 0.3	1.4217	20.24
x2 = 0.4	1.427	22.93
x2 = 0.5	1.4339	25.94
x2 = 0.6	1.44	29.38
x2 = 0.7	1.4488	33.14
x2 = 0.8	1.4573	37.33
x2 = 0.9	1.4675	41.95
